Experimental data published in PMC6689897, “Drugging an undruggable pocket on KRAS” (Proceedings of the National Academy of Sciences of the …, 2019).

Biological target: GTP-KRASG12D::SOS1 (Homo sapiens, UniProt P01116, G12D)
Experiment: Alpha Screen PPI assay
Assay type: biochemical
Settings: duplicate
Experimental: page 6: 217 The coordinates and structure factors of the structures have been deposited at the 218 Protein Data Bank with the accession codes PDB Code 6GJ5, 6GJ6, 6GJ7, 6GJ8. 219 220 Alpha Screen Assays 221 Measurements of various protein-protein interactions were performed using the Alpha 222 Screen technology developed by Perkin Elmer. Recombinant RAS proteins (H-, […] RAS variants; all KRAS variants are based on KRAS isoform 4B (uniprot id P01116-2); 224 KRAS (G12D) 1-169, N-terminal 6His-tag, C-terminal avi-tag was from Xtal 225 BioStructures, Inc., KRAS (G12C) 1-169, C-terminal avi-tag, biotinylated, mutations: 226 C51S, C80L, C118S, NRAS(wt) 1-172, C-terminal avi-tag, biotinylated; HRAS(wt) 1- 227 166, C-terminal avi-tag, biotinylated). Biotinylation was performed in vitro with 228 recombinant BirA biotin-protein ligase as recommended by the manufacturer (Avidity 229 LLC, Aurora, Colorado, USA). Interacting proteins such as SOS1 (564-1049, N-terminal 230 GST-tag, TEV cleavage site), cRaf (1-303, N-terminal GST-tag, TEV cleavage site) and 231 PI3KA- RBD (160-317, N-term-HIS_GST-tag) were expressed as glutathione S 232 transferase (GST) fusions. […] Single oxygen induced fluorescence was 246 measured at an Enspire multimode plate reader (Perkin Elmer) according to the 247 manufacturer's recommendations. Data were analyzed using the GraphPad Prism data 248 software. […]

GTP-KRASG12D::SOS1, sequence (P01116 1-169 isoform P01116-2 G12D): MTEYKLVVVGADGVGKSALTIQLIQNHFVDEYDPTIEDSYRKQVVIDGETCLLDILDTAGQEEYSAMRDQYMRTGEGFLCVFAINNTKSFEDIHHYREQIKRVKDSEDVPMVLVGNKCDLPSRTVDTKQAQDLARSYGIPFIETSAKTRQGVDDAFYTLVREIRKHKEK

## C=CC(=O)N1CCN(c2ncnc3c(F)c(-c4c(O)cccc4F)c(Cl)cc23)CC1 [ARS-1620, reference compound]
  IC50: > 10000 nM

## Cn1cnc(Cn2ccc3ccc(CNCc4[nH]c5ccccc5c4[C@H]4NC(=O)c5ccc(O)cc54)cc32)c1 [Compound 1]
  IC50: 490 nM
